# Source: patent US20110201603A1, “Novel Acylaminobenzamide Derivatives” (Bayer CropScience AG, priority 2008, published 2011)
# Tests used:
# [1] = system: tobacco cutworm (Spodoptera litura) larvae; experiment: Test against tobacco cutworm (Spodoptera litura) larvae, leaf dip; type: in vivo; conditions: active compound concentration of 100 ppm; third-instar larvae on sweet potato leaves; after 7 days
# Description: (§1) Unless not mentioned otherwise, the test solutions were prepared as follows:
# (§2) Containing as solvent: Dimethylformamide, 3 parts by weight; and as emulsifier: Polyoxyethylene alkyl phenyl ether, 1 part by weight
# (§3) To prepare the test solution, 1 part by weight of an active compound is mixed with the above-mentioned amount of solvent containing the above-mentioned amount of emulsifier, and the mixture is diluted with water to the desired concentration.
# The leaves of sweet potato were immersed in the test solution at the appropriate concentration, and the leaves were dried in air. The leaves were then placed in a petri dish having a diameter of 9 cm, and ten third-instar larvae of tobacco cutworm were released therein. The petri dish was placed in a temperature-controlled chamber at 25° C. After 2 days and 4 days sweet potato leaves were additionally added. After 7 days, the number of dead larvae was counted to calculate the insecticidal activity. An insecticidal activity of 100% means that all larvae were killed, whereas an insecticidal activity of 0% means that no larva was killed. In the current test, the results of two petri dishes for each partition were averaged.
# [2] = system: cucurbit leaf beetle (Aulacophora femoralis); experiment: Test against cucurbit leaf beetle (Aulacophora femoralis), leaf dip; type: in vivo; conditions: active compound concentration of 100 ppm; second-instar larvae on cucumber leaves; after 7 days
# Description: as §1, §2, §3
# Cucumber leaves were immersed in the test solution at the appropriate concentration, and the leaves were dried in air. The leaves were then placed in a plastic cup containing sterilized black soil, and five second-instar larvae of cucurbit leaf beetle were released therein. The plastic cup was placed in a temperature-controlled chamber at 25° C. After 7 days, the number of dead larvae was counted, and thus the insecticidal activity was calculated. An insecticidal activity of 100% means that all beetles were killed, whereas an insecticidal activity of 0% means that no beetle was killed.
SMILES,insecticidal activity [1] [%],insecticidal activity [2] [%]
CCc1cc(C(OCC(F)(F)F)(C(F)(F)F)C(F)(F)F)cc(C)c1NC(=O)c1cccc(NC(=O)c2cccnc2Cl)c1 [1-146],100,100
O=C(Nc1c(Cl)cc(C(n2cc(Cl)cn2)(C(F)(F)F)C(F)(F)F)cc1Cl)c1cccc(NC(=O)c2cccnc2Cl)c1 [2-61],100,100
CC#CCOC(c1cc(I)c(NC(=O)c2cccc(NC(=O)c3ccccc3)c2)c(I)c1)(C(F)(F)F)C(F)(F)F [1-83],100,100
CCc1cc(C(Oc2ccc(C#N)cc2)(C(F)(F)F)C(F)(F)F)cc(C)c1NC(=O)c1cccc(NC(=O)c2cccnc2Cl)c1 [1-168],100,100
CCc1cc(C(Oc2ccnc(C(F)(F)C(F)(F)F)c2)(C(F)(F)F)C(F)(F)F)cc(C)c1NC(=O)c1cccc(NC(=O)c2cccnc2Cl)c1 [1-142],100,100
CCc1cc(C(Oc2cccnc2)(C(F)(F)F)C(F)(F)F)cc(C)c1NC(=O)c1cccc(NC(=O)c2cccnc2Cl)c1 [1-171],100,100
Cc1cc(C(Oc2ccc(Br)cc2)(C(F)(F)F)C(F)(F)F)cc(C)c1NC(=O)c1cccc(NC(=O)c2cccnc2Cl)c1 [1-166],100,100
Cc1cc(C(n2cc(Cl)cn2)(C(F)(F)F)C(F)(F)F)cc(Br)c1NC(=O)c1cccc(NC(=O)c2ccccc2F)c1 [2-31],100,100
CCc1cc(C(ON=Cc2ccc(Cl)cc2)(C(F)(F)F)C(F)(F)F)cc(C)c1NC(=O)c1cccc(NC(=O)c2cccnc2Cl)c1 [1-138],100,100
CCc1cc(C(Oc2ccc(Br)cc2)(C(F)(F)F)C(F)(F)F)cc(CC)c1NC(=O)c1cccc(NC(=O)c2cccnc2Cl)c1 [1-177],100,100
Cc1cc(C(n2c(Br)nc(Br)c2Br)(C(F)(F)F)C(F)(F)F)cc(C)c1NC(=O)c1cccc(NC(=O)c2cccnc2Cl)c1 [2-144],100,100
CC#CCOC(c1cc(I)c(NC(=O)c2cccc(NC(=O)c3ccc(F)cc3)c2)c(I)c1)(C(F)(F)F)C(F)(F)F [1-84],100,100
Cc1cc(C(n2nccn2)(C(F)(F)F)C(F)(F)F)cc(C)c1NC(=O)c1cccc(NC(=O)c2cccnc2Cl)c1 [2-147],100,100
Cc1cc(C(Oc2ccc(Cl)cc2)(C(F)(F)F)C(F)(F)F)cc(C)c1NC(=O)c1cccc(NC(=O)c2cccnc2Cl)c1 [1-160],100,100
Cc1cc(C(n2nc(Br)c(Br)c2Br)(C(F)(F)F)C(F)(F)F)cc(C)c1NC(=O)c1cccc(NC(=O)c2cccnc2Cl)c1 [2-133],100,100
CCc1cc(C(n2nc(Br)c(Br)c2Br)(C(F)(F)F)C(F)(F)F)cc(C)c1NC(=O)c1cccc(NC(=O)c2cccnc2Cl)c1 [2-134],100,100
CCc1cc(C(n2nc(Br)c(Br)c2Br)(C(F)(F)F)C(F)(F)F)cc(C)c1NC(=O)c1cccc(NC(=O)c2cccnc2F)c1 [2-128],100,100
CCc1cc(C(Oc2ccc(Cl)cn2)(C(F)(F)F)C(F)(F)F)cc(C)c1NC(=O)c1cccc(NC(=O)c2cccnc2Cl)c1 [1-173],100,100
Cc1cc(C(n2cnc(Cl)c2Cl)(C(F)(F)F)C(F)(F)F)cc(C)c1NC(=O)c1cccc(NC(=O)c2cccnc2Cl)c1 [2-143],100,100
CCc1cc(C(Oc2ccc(Cl)c(Cl)c2)(C(F)(F)F)C(F)(F)F)cc(C)c1NC(=O)c1cccc(NC(=O)c2cccnc2Cl)c1 [1-151],100,100
CCc1cc(C(N2CC=CCC2)(C(F)(F)F)C(F)(F)F)cc(C)c1NC(=O)c1cccc(NC(=O)c2cccnc2Cl)c1 [2-180],100,100
Cc1cc(C(n2cccc2Br)(C(F)(F)F)C(F)(F)F)cc(C)c1NC(=O)c1cccc(NC(=O)c2cccnc2Cl)c1 [2-2],100,100

SMILES,insecticidal activity [1] [%],insecticidal activity [2] [%]
CCc1cc(C(n2cnc(Cl)n2)(C(F)(F)F)C(F)(F)F)cc(C)c1NC(=O)c1cccc(NC(=O)c2cccnc2Cl)c1 [2-183],100,100
CCc1cc(C(Oc2ccc(Br)cc2)(C(F)(F)F)C(F)(F)F)cc(C)c1NC(=O)c1cccc(NC(=O)c2cccnc2Cl)c1 [1-129],100,100
O=C(Nc1c(Cl)cc(C(n2cc(Cl)cn2)(C(F)(F)F)C(F)(F)F)cc1Cl)c1cccc(NC(=O)c2ccccc2F)c1 [2-32],100,100
Cc1cc(C(n2cc(Cl)cn2)(C(F)(F)F)C(F)(F)F)cc(Br)c1NC(=O)c1cccc(NC(=O)c2c(F)cccc2F)c1 [2-41],100,100
CCc1cc(C(n2cc(Br)cn2)(C(F)(F)F)C(F)(F)F)cc(C)c1NC(=O)c1cccc(NC(=O)c2cccnc2Cl)c1 [2-87],100,100
CCc1cc(C(Oc2ccc(F)cc2)(C(F)(F)F)C(F)(F)F)cc(C)c1NC(=O)c1cccc(NC(=O)c2cccnc2Cl)c1 [1-128],100,100
C#CCOC(c1cc(I)c(NC(=O)c2cccc(NC(=O)c3ccccc3)c2)c(I)c1)(C(F)(F)F)C(F)(F)F [1-79],100,100
CCc1cc(C(Oc2ccc(I)cc2)(C(F)(F)F)C(F)(F)F)cc(C)c1NC(=O)c1cccc(NC(=O)c2cccnc2Cl)c1 [1-152],100,100
Cc1cc(C(Oc2ccc(Cl)nc2)(C(F)(F)F)C(F)(F)F)cc(C)c1NC(=O)c1cccc(NC(=O)c2cccnc2Cl)c1 [1-182],100,100
CCc1cc(C(n2cc(Cl)cn2)(C(F)(F)F)C(F)(F)F)cc(C)c1NC(=O)c1cccc(NC(=O)c2cccnc2F)c1 [2-44],100,100
O=C(Nc1c(I)cc(C(n2cc(Cl)cn2)(C(F)(F)F)C(F)(F)F)cc1I)c1cccc(NC(=O)c2ccccc2F)c1 [2-34],100,100
CCc1cc(C(Oc2ccc(C(F)(F)F)cc2)(C(F)(F)F)C(F)(F)F)cc(C)c1NC(=O)c1cccc(NC(=O)c2cccnc2Cl)c1 [1-130],100,100
CCc1cc(C(Oc2ccc(OC(F)(F)F)cc2)(C(F)(F)F)C(F)(F)F)cc(C)c1NC(=O)c1cccc(NC(=O)c2cccnc2Cl)c1 [1-131],100,100
Cc1cc(C(n2cnc(C(F)(F)F)n2)(C(F)(F)F)C(F)(F)F)cc(C)c1NC(=O)c1cccc(NC(=O)c2cccnc2Cl)c1 [2-153],100,100
CCc1cc(C(Oc2cccc(Cl)c2)(C(F)(F)F)C(F)(F)F)cc(C)c1NC(=O)c1cccc(NC(=O)c2cccnc2Cl)c1 [1-108],100,100
O=C(Nc1c(I)cc(C(n2cc(Cl)cn2)(C(F)(F)F)C(F)(F)F)cc1I)c1cccc(NC(=O)c2cccnc2Cl)c1 [2-63],100,100
O=C(Nc1c(Br)cc(C(n2cc(Cl)cn2)(C(F)(F)F)C(F)(F)F)cc1Br)c1cccc(NC(=O)c2ccccc2F)c1 [2-33],100,100
Cc1cc(C(n2cc(Cl)cn2)(C(F)(F)F)C(F)(F)F)cc(Br)c1NC(=O)c1cccc(NC(=O)c2cccnc2Cl)c1 [2-59],100,100
Cc1cc(C(n2cc(I)c(I)n2)(C(F)(F)F)C(F)(F)F)cc(C)c1NC(=O)c1cccc(NC(=O)c2cccnc2Cl)c1 [2-116],100,100
CC#CCOC(c1cc(I)c(NC(=O)c2cccc(NC(=O)c3cccnc3Cl)c2)c(I)c1)(C(F)(F)F)C(F)(F)F [1-85],100,100
"CCc1cc(C(n2cc(C(F)(F)F)cn2)(C(F)(F)F)C(F)(F)F)cc(C)c1NC(=O)c1cccc(NC(=O)c2cccnc2Cl)c1 [2-105, 2-chloro-N-{3-[(2-ethyl-4-{1,1,1,3,3,3-hexafluoro-2-[4-(trifluoromethyl)-1H-pyrazol-1-yl]propan-2-yl}-6-methylphenyl)carbamoyl]-phenyl}pyridine-3-carboxamide]",100,100
